Consider four compounds from patent US20210322452A1, “COGNITIVE FUNCTION IMPROVING COMPOSITION COMPRISING NOVEL POST FERMENTED TEA-DERIVED KAEMPFEROL-BASED COMPOUND” (AMOREPACIFIC CORPORATION, priority 2016, published 2021).

Molecules are shown by their SMILES.

One data set addresses T1, beta amyloid (Aβ1-42) (Homo sapiens, UniProt P05067).
T1 construct: beta amyloid (Aβ1-42, AnaSpec Inc., USA) was obtained; purchased AnaSpec Inc., USA
The data set is described as follows: Inhibition of beta amyloid aggregation, fluorescence analysis (ThioflavinT assay). The following applies: compound 10 μM; for Increased RFU (amount of aggregated beta amyloid): Aβ1-42 0.1 mg/ml, thioflavinT, 37° C., 150 minutes; for Increased RFU (% of Pos. Cont.): Pos. Cont. (only beta amyloid, no compound) = 100%; for inhibition at 10 µM: aggregation in positive control group taken as 100%, read-out: inhibition of beta amyloid aggregation compared with the positive control group. The data set is classed as biochemical. On the procedure:
The effect of kaempferol3-O-[2-O″-(E)-p-coumaroyl][beta-D-glucopyranosyl-(1→3)-O-alpha-L-rhamnopyranosyl-(1→6)-O-beta-D-glucopyranoside] on inhibition of beta amyloid aggregation was confirmed by the fluorescence analysis (ThioflavinT assay).
Specifically, beta amyloid (Aβ1-42, AnaSpec Inc., USA) was obtained and used at a concentration of 0.1 mg/ml and stored at −80° C. before use. Morin (20 μM), phenol red (20 μM), and kaempferol3-O-[2-O″-(E)-p-coumaroyl][beta-D-glucopyranosyl-(1→3)-O-alpha-L-rhamnopyranosyl-(1→6)-O-beta-D-glucopyranoside] (1 mg/ml) were respectively diluted with DMSO so as to be adjusted to the concentrations.
In order to specify the degree of inhibition of Aβ1-42 aggregation, each of the compounds prepared at the above concentrations was diluted with 50 μL of 0.01 M sodium phosphate buffer solution to have a concentration of 10 μM, then 40 μL of 0.1 mg/ml of Aβ1-42 was added thereto, and then 10 μl of 2 mM thioflavinT was added thereto, and fluorescence was measured using a fluorescence spectrometer (RF-5300PC, SHIMADZU CORPORATION, Japan) at 37° C. for 150 minutes at intervals of 5 minutes.

The subject of data set [1] is BDNF (brain-derived neurotrophic factor). The data set is described as follows: Expression level of intracellular BDNF in SH-SY5Y cells (real-time quantitative PCR). The data set is classed as cell-based. The following applies: 24 hours, mRNA vs GAPDH, untreated = 100. On the procedure:
(§1) Specifically, SH-SY5Y (neuroblastoma, Korean Cell Line Bank) cell line was seeded in a 6-well plate (FALCON) at 2×10^6 cells per well, cultured in an incubator containing 5% CO2 at 37° C. for 24 hours, then treated with 10 μg/ml of GCG, 10 μM of EGCG, 10 μg/ml of the existing green tea extract (GTE), 10 μg/ml of the novel substance 33, and 1 μM of 5-Aza-2′deoxycytidine (5-Aza, Sigma-aldrich) as a positive control group, and further cultured for 24 hours. Thereafter, the medium was entirely removed therefrom, and RNA was extracted therefrom using an RNA extraction kit (RNeasy mini kit, Quiagen). The extracted mRNA was quantitated using an ultraviolet detector (TECAN), and then 1 μg of mRNA was synthesized into a complementary DNA using a kit (SuperScript VILO cDNA Synthesis Kit, Thermofisher Scientific). Approximately 1 μg of the complementary DNA was taken and subjected to the real-time quantitative chain reaction using Taqman probe (Life technology) and Quantitect Probe PCR Kit (Quiagen). The expression levels of BDNF and DNMT1 were thus confirmed. At this time, the housekeeping gene, GAPDH, was used as the reference mRNA.

For another data set, the system named is skin. Nature of the data set: Human repeated insult patch tests (HRIPT), cumulative skin irritation. The data set is classed as in vivo. Set-up: key to skin reactivity (ICDRG criteria): −: Negative (no reaction); ±: Suspicious or mild erythema and the like; +: Weak reaction (not accompanied by small vesicula), erythema, papule; ++: Moderate reaction (with small vesicula), erythema, papule, vesicula; +++: Strong reaction, bulla reaction. The following applies: for Number of subjects showed ±, +, or ++ reactivity, 1st time: 1st patch; for Number of subjects showed ±, +, or ++ reactivity, 1st time / Number of subjects showed ±, +, or ++ reactivity, 2nd time / Number of subjects showed ±, +, or ++ reactivity, 3rd time / Number of subjects showed ±, +, or ++ reactivity, 4th time / Number of subjects showed ±, +, or ++ reactivity, 5th time / Number of subjects showed ±, +, or ++ reactivity, 6th time / Number of subjects showed ±, +, or ++ reactivity, 7 th time / Number of subjects showed ±, +, or ++ reactivity, 8 th time / Number of subjects showed ±, +, or ++ reactivity, 9th time: three lines per group (±, +, ++; lines not labelled); for Number of subjects showed ±, +, or ++ reactivity, 2nd time: 2nd patch; for Number of subjects showed ±, +, or ++ reactivity, 3rd time: 3rd patch; for Number of subjects showed ±, +, or ++ reactivity, 4th time: 4th patch; for Number of subjects showed ±, +, or ++ reactivity, 5th time: 5th patch; for Number of subjects showed ±, +, or ++ reactivity, 6th time: 6th patch; for Number of subjects showed ±, +, or ++ reactivity, 7 th time: 7th patch; for Number of subjects showed ±, +, or ++ reactivity, 8 th time: 8th patch; for Number of subjects showed ±, +, or ++ reactivity, 9th time: 9th patch; for Average reactivity: safe when less than 3. As to the method: Human repeated insult patch tests (HRIPT) were conducted to determine the cumulative skin irritation by kaempferol3-O-[2-O″-(E)-p-coumaroyl][beta-D-glucopyranosyl-(1→3)-O-alpha-L-rhamnopyranosyl-(1→6)-O-beta-D-glucopyranoside] and to calculate the concentration range in which kaempferol3-O-[2-O″-(E)-p-coumaroyl][beta-D-glucopyranosyl-(1→3)-O-alpha-L-rhamnopyranosyl-(1→6)-O-beta-D-glucopyranoside] can be used on the skin.
Specifically, 15 healthy adult subjects were randomly selected, the test compositions (compositions for skin containing an emulsifier, a stabilizer, purified water, and the like in addition to the compound) containing the compound at 0.5 wt %, 1 wt %, and 3 wt % were dropped by 20 μl per chamber (IQ chamber, Epitest Ltd, Finland), and the patch was applied to the right side of the upper back of the subject and then replaced with new one after 24 hours. The skin reaction was examined before and after the patch test while the patch test was conducted three times a week and thus nine times for three weeks in total in this manner, the skin reaction was observed until the 48th hour after removal of the final patch, and the average reactivity was determined.
The skin reaction was judged according to the criteria of the International Contact Dermatitis Research Group (ICDRG). In the above table, “Novel substance 33” denotes kaempferol3-O-[2-O″-(E)-p-coumaroyl][beta-D-glucopyranosyl-(1→3)-O-alpha-L-rhamnopyranosyl-(1→6)-O-beta-D-glucopyranoside].

In data set [2] the test system is DNMT1 (DNA (cytosine-5)-methyltransferase 1). The data set is described as follows: Expression level of intracellular DNMT1 in SH-SY5Y cells (real-time quantitative PCR). The data set is classed as cell-based. The following applies: 24 hours, mRNA vs GAPDH, untreated = 100. As to the method: as §1

T1 sequence (P05067 672-713 limits assumed): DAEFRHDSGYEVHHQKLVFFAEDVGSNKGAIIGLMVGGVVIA

For orientation: inhibition means the drop in the measured response relative to a control, in per cent. For the compound `O=c1c(O)c(-c2ccc(O)cc2O)oc2cc(O)cc(O)c12` [Morin], on beta amyloid (Aβ1-42), the “Increased RFU (amount of aggregated beta amyloid)” value amounted to 11471 RFU, the “Increased RFU (% of Pos. Cont.)” value was found to be 78.6% and the inhibition at 10 µM amounted to 21.4%.

Turning to `CC1OC(OCC2OC(Oc3c(-c4ccc(O)cc4)oc4cc(O)cc(O)c4c3=O)C(OC(=O)/C=C/c3ccc(O)cc3)C(O)C2O)C(O)C(OC2OC(CO)C(O)C(O)C2O)C1O` [Novel substance 33, kaempferol3-O-[2-O″-(E)-p-coumaroyl][beta-D-glucopyranosyl-(1→3)-O-alpha-L-rhamnopyranosyl-(1→6)-O-beta-D-glucopyranoside]], the “Relative expression level of BDNF” value in data set [1] (10 μg/ml) stood at 128%. Further, in the data set on skin (0.5 wt %), the “Number of subjects showed ±, +, or ++ reactivity, 1st time” value (from here on “Number of subjects showed ± … 1st time”) worked out at 0 persons; the “Number of subjects showed ±, +, or ++ reactivity, 2nd time” value (shortened to “Number of subjects showed ± … 2nd time”) was found to be 0 persons; the “Number of subjects showed ±, +, or ++ reactivity, 3rd time” value (“Number of subjects showed ± … 3rd time” below) worked out at 0 persons; the “Number of subjects showed ±, +, or ++ reactivity, 4th time” value (from here on “Number of subjects showed ± … 4th time”) is listed as 0 persons. Also, in the data set with skin (0.5 wt %), the “Number of subjects showed ±, +, or ++ reactivity, 5th time” value (shortened to “Number of subjects showed ± … 5th time”) is 0 persons; the “Number of subjects showed ±, +, or ++ reactivity, 6th time” value (“Number of subjects showed ± … 6th time” below) turned out to be 0 persons; the “Number of subjects showed ±, +, or ++ reactivity, 7 th time” value (from here on “Number of subjects showed ± … 7 th time”) worked out at 0 persons; the “Number of subjects showed ±, +, or ++ reactivity, 8 th time” value (“Number of subjects showed ± … 8 th time” below) is reported as 0 persons. Besides, in the data set with skin (0.5 wt %), the “Number of subjects showed ±, +, or ++ reactivity, 9th time” value (shortened to “Number of subjects showed ± … 9th time”) came to 0 persons and the Average reactivity was 0. Besides, in the data set on skin (1 wt %), the “Number of subjects showed ± … 1st time” value was 0 persons; the “Number of subjects showed ± … 2nd time” value stood at 0 persons; the “Number of subjects showed ± … 3rd time” value came out at 0 persons; the “Number of subjects showed ± … 4th time” value is given as 0 persons. Also, in the data set with skin (1 wt %), the “Number of subjects showed ± … 5th time” value is 0 persons; the “Number of subjects showed ± … 6th time” value worked out at 0 persons; the “Number of subjects showed ± … 7 th time” value worked out at 0 persons; the “Number of subjects showed ± … 8 th time” value stood at 0 persons. For the same compound, in the data set on skin (1 wt %), the “Number of subjects showed ± … 9th time” value is 0 persons and the Average reactivity is listed as 0. Besides, in the data set with skin (3 wt %), the “Number of subjects showed ± … 1st time” value stood at 0 persons; the “Number of subjects showed ± … 2nd time” value amounted to 0 persons; the “Number of subjects showed ± … 3rd time” value is listed as 0 persons; the “Number of subjects showed ± … 4th time” value is 0 persons. Moreover, in the data set with skin (3 wt %), the “Number of subjects showed ± … 5th time” value is listed as 0 persons; the “Number of subjects showed ± … 6th time” value was 0 persons; the “Number of subjects showed ± … 7 th time” value came out at 0 persons; the “Number of subjects showed ± … 8 th time” value is recorded as 0 persons. Besides, in the data set on skin (3 wt %), the “Number of subjects showed ± … 9th time” value turned out to be 0 persons and the Average reactivity was determined as 0. Moreover, the “skin reactivity (ICDRG criteria)” value with skin (all the content ranges (0.5, 1, 3 wt %), 15 subjects, 9 patches in 3 weeks) is “−”. Besides, the “Relative expression level of DNMT1” value in data set [2] (10 μg/ml) was 78%. Further, on beta amyloid (Aβ1-42), the “Increased RFU (amount of aggregated beta amyloid)” value worked out at 11235 RFU, the “Increased RFU (% of Pos. Cont.)” value was found to be 77.0% and the inhibition at 10 µM came out at 23%.

Consider `Nc1ncn([C@H]2C[C@H](O)[C@@H](CO)O2)c(=O)n1` [5-Aza-2′deoxycytidine, reference compound], for which the “Relative expression level of BDNF” value in data set [1] (1 μM) is listed as 149%. The “Relative expression level of DNMT1” value in data set [2] (1 μM) came to 65%.

In the case of `O=S1(=O)OC(c2ccc(O)cc2)(c2ccc(O)cc2)c2ccccc21` [Phenol Red], on beta amyloid (Aβ1-42), the “Increased RFU (% of Pos. Cont.)” value turned out to be 93.6% and the inhibition at 10 µM was determined as 6.4%.
